Literature values as cited in US20240398651A1 (Neuro-Innovators, LLC., priority 2021, published 2024).

Columns and labels:
[1] = in vivo
[2] = previous clinical trials, compared with aspirin

elimination half-life [1]: 11 to 13 h
hemorrhagic events [2]: fewer hemorrhagic events
SMILES: O=C1CCc2cc(OCCCCc3nnnn3C3CCCCC3)ccc2N1 [Cilostazol]
incidence of recurrent stroke [2]: significantly reduce the incidence of recurrent stroke
